Experiment [1] has as its system MRSA strains (S. aureus COL). Briefly: MIC, synergistic activity with Ertapenem (4 μg/ml). To be noted: Ertapenem 4 μg/ml; D-form peptide. The class given is cell-based, Staphylococcus aureus. As to the method:
Minimum inhibition concentrations (MICs) were determined against Escherichia coli (ATCC 25922), Staphylococcus aureus (ATCC 25923), Klebsiella pneumoniae (ATCC 10031) and Pseudomonas aeruginosa (ATCC 27853). Also clinical strains of E. coli, K. pneumoniae, E. cloacae, P. aeruginosa, Serratia marcescens, Proteus mirabilis, S. pneumoniae, Acinetobacter baumannii, A. johnsonii and S. aureus were used for MICs assays. Additionally, clinical strains of yeast including Candida albicans, C. glabrata, C. parapsilosis and C. quillermondiae were used. The susceptibility of these microorganisms to Chain peptides were determined using micro broth dilution assay. Colonies of the respective microorganism from Muller Hinton (MH) agar plates incubated overnight were suspended in MH broth media and final concentration of microorganism was adjusted to 5.0×10^5 cfu/ml. An aliquot of 10 μl of each Chain peptide, or gentamicin, tetracycline as reference antibiotics were added in differing concentrations along with 90 μl of bacterial suspension to 96 well polypropylene plates and incubated at 37° C. for 20 to 24 hours. Concentrations of Chain peptides and reference antibiotics ranged from 0.125 to 128 μg/ml and the MICs were recorded as the lowest concentration with no visual growth of bacteria. Similarly, antifungal MICs were tested in Potato dextrose broth.
Peptides Chain 104, Chain 105, Chain 201, Chain 308, Chain 310 were tested against antibiotic-sensitive strains of S. aureus RN4220 and methicillin resistant strains of S. aureus COL (MRSA). Chain peptides comprising of either L- or D-form amino acids were tested against these bacteria, and the D-form peptides were found have better activity compared to L-form (Table 6). Synergistic activity of chain peptides along with Ertapenem (4 μg/ml) was tested to know whether it will influence the activity against MRSA strains. […] Chain 310 has the best antibacterial activity against the MRSA strains with a MIC of 0.06 & 0.03 μg/ml along with Ertapenem (4 μg/ml) for both forms of L and D-peptides (Table 6).

Experiment [2] has as its system Escherichia coli (ATCC 25922). The class given is cell-based. To be noted: Peptides 50 μg, Gentamycin 5 μg, diameter including the wells. As to the method:
(§1) The radial diffusion assay (RDA) was carried out as described by Andersen et al. (2010). Briefly, 30 ml of 1/10 Muller-Hinton broth (MHB) supplemented with 1% agarose and 5.0×10^5 CFU/ml S. aureus or E. coli or K. pneumoniae, P. aeruginosa cells was poured into a single-well omnitray (Nunc) and overlaid with a TSP 96-well plate. […] The peptides were also tested against Fusarium oxysporum and Verticillium dahliae, for which ⅓ potato dextrose agarose was used. To test the synergistic effect of peptides, each peptide was mixed in equimolar concentrations. Mix1 (met1-12), Mix2 (met3, 4 and 5), Mix3 (met8, 9 and 10), Mix4 (met11, 12) and Mix5 (8, 9, 10, 11, 12) were prepared and tested against E. coli and S. aureus. Gentamicin and vancomycin were included as positive controls for bacteria and amphotericin B was used as the control for fungi.
(§2) By using rational design techniques, we have designed variants of peptides by incorporating or replacing various amino acids in the original peptides. Thus, we have designed and modified Chain 100, Chain 200 and Chain 300 with tryptophan (W), arginine (R) and lysine (K) at various positions to improve antimicrobial activity (FIGS. 4a-c and 5a-c). In some peptides we have also used other amino acids such as Leucine (L), Cysteine (C), Isoleucine (I), Phenylalanine (F) and Alanine (A). For synthesis, 32 variants and 3 original peptides were selected based on the various parameters such as positive charge, aliphatic index and instability index. Peptides variants were tested by using radial diffusion assay against Escherichia coli (ATCC 25922), Staphylococcus aureus (ATCC 25923), Klebsiella pneumoniae (ATCC 10031) and Pseudomonas aeruginosa (ATCC 27853) (FIGS. 6a-c). The zone of inhibition ranged between 10-18 mm for Escherichia coli and Staphylococcus aureus, 6-18 mm & 8-18 mm for Pseudomonas aeruginosa and Klebsiella pneumonia respectively (Table 2). For Gentamicin it was between 22-24 mm. Antifungal activity was tested for promising antibacterial peptides (Chains 104, 105, 109, 201, 204, 306, 307, 308, 310) against Aspergillus flavus (DSM 1959) and Penicillium chrysogenum (DSM 1075). All these peptides has activity at a concentration of 20 μg, Amphotericin B was used as a positive control at 20 μg (FIG. 7).

The test system of experiment [3] is Klebsiella pneumoniae (ATCC 10031). The format is cell-based. As to conditions: Peptides 50 μg, Gentamycin 5 μg, diameter including the wells. The protocol: as §1, §2
Experiment [4] deals with Pseudomonas aeruginosa (ATCC 27853). The class given is cell-based. To be noted: Peptides 50 μg, Gentamycin 5 μg, diameter including the wells. The protocol:
as §1, §2

The test system of experiment [5] is Staphylococcus aureus (ATCC 25923). The format is cell-based. As to conditions: Peptides 50 μg, Gentamycin 5 μg, diameter including the wells. As to the method: as §1, §2
Experiment [6] has as its system Escherichia coli (ATCC 25922). Briefly: microbe, parasite or virus in culture. The format is cell-based. The procedure, abridged:
(§3)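 Susceptibility is determined by micro broth dilution with a bacterial inoculum of 5.0×10^5 cfu/ml in Mueller-Hinton broth. The endpoint is absence of visible growth following 20–24 h incubation at 37° C.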

In experiment [7] the test system is Klebsiella pneumoniae (ATCC 10031). Put plainly: microbe, parasite or virus in culture. The format is cell-based. The method in brief: as §3
For experiment [8], the system named is Pseudomonas aeruginosa (ATCC 27853). Briefly: microbe, parasite or virus in culture. The class given is cell-based. The procedure, abridged: as §3
For experiment [9], the system named is Staphylococcus aureus (ATCC 25923). Put plainly: microbe, parasite or virus in culture. The class given is cell-based. The procedure, abridged: as §3

Where two headings read alike, the source gives them in different places. Square brackets hold non-standard residues; d marks the D form. Peptide text beside a SMILES is read from it.

As for `CC(C)C[C@@H](NC(=O)[C@@H](CCCCN)NC(=O)[C@@H](CCCCN)NC(=O)[C@@H](Cc1ccccc1)NC(=O)[C@@H](CC(C)C)NC(=O)[C@@H](Cc1c[nH]c2ccccc12)NC(=O)[C@@H](CCCNC(=N)N)NC(=O)[C@@H](Cc1c[nH]c2ccccc12)NC(=O)[C@@H](CCCCN)NC(=O)[C@@H](CCCNC(=N)N)NC(=O)[C@H](N)CCCCN)C(=O)O` [Chain310D] (H-[dK][dR][dK][dW][dR][dW][dL][dF][dK][dK][dL]-OH), in [1], the “MIC against MRSA strains along with Ertapenem” value was found to be 0.03 µg/mL.

For the molecule Gentamicin [reference compound], the “Inhibition zone, Escherichia coli” value in [2] is 22-24 mm; in experiment [2] (listed as Gentamycin), 22 mm. In addition, the entries for the “Inhibition zone, Klebsiella pneumoniae” value in experiment [3] and in experiment [3] (listed as Gentamycin) were 22-24 mm and 22 mm, respectively. Besides, the “Inhibition zone, Pseudomonas aeruginosa” value is reported as 22-24 mm in [4] and 24 mm in [4] (listed as Gentamycin). For the same molecule, the “Inhibition zone, Staphylococcus aureus” value is listed as 22-24 mm in [5] and 24 mm in [5] (listed as Gentamycin). Besides, the “Minimum inhibitory concentration, Escherichia coli (ATCC 25922)” value in experiment [6] stood at 1 µg/mL. Moreover, the “Minimum inhibitory concentration, Klebsiella pneumoniae (ATCC 10031)” value in [7] was determined as 0.25 µg/mL. Besides, the “Minimum inhibitory concentration, Pseudomonas aeruginosa (ATCC 27853)” value in [8] worked out at 0.25 µg/mL. Also, the “Minimum inhibitory concentration, Staphylococcus aureus (ATCC 25923)” value in [9] is 0.25 µg/mL.
